The values below come from paper PMC6476273, “Engineering a Model Cell for Rational Tuning of GPCR Signaling” (Cell, 2019).

Like-named read-outs stand apart in the source and are kept apart here. Ends that are not written are not given here.

In test [1] the test system is Ste2. Kind of test: α-factor dose-response of pheromone response pathway strains, sfGFP by flow cytometry. The test is classed as cell-based, Saccharomyces cerevisiae. (In general: Flow cytometry measures light scatter and fluorescence of single cells or particles in a stream.)
Test [2] addresses T1, human A2BR receptor (Homo sapiens, UniProt P29275).
T1 sequence (P29275 1-332): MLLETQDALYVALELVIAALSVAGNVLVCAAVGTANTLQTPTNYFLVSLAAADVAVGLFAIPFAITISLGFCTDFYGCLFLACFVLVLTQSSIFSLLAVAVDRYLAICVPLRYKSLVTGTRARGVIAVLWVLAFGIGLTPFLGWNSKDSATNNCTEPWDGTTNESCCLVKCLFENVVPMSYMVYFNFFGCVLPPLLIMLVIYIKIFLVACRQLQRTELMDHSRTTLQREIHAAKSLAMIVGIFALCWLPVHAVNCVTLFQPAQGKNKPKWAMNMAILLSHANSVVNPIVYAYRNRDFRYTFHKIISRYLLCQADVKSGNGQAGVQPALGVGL
T1 sequence (P08539 2-472 partner): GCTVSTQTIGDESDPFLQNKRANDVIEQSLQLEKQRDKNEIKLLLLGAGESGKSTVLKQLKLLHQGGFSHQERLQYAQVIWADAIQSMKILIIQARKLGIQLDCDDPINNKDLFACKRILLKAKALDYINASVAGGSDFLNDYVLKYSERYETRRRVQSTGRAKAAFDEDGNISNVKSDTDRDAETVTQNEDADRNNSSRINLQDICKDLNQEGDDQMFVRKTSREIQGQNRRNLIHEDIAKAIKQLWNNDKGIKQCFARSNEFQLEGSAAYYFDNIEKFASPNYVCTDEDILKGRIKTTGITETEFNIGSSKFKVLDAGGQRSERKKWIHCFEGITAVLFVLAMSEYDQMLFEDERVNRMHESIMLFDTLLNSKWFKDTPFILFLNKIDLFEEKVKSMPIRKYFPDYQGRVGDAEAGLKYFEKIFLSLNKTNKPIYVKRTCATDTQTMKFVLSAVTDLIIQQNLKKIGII
Kind of test: Adenosine dose-response, A2BR single strain and three-strain consortium, sfGFP by plate reader. Format: cell-based. As to conditions: for Hill slope: plate reader.

Test [3] deals with T1, human A2BR receptor. Kind of test: Adenosine dose-response, A2BR sensor strain, sfGFP by flow cytometry. Format: cell-based. As to conditions: Fig S6C, wild-type Gpa1, triplicate isolates.
Test [4] addresses T2, Mam2 receptor (Schizosaccharomyces pombe, UniProt Q00619).
T2 construct: expressed in transfected cells; host or cells: Saccharomyces cerevisiae yWS677 (BY4741 derivative), chromosomally integrated YTK cassette
T2 sequence (Q00619 1-348): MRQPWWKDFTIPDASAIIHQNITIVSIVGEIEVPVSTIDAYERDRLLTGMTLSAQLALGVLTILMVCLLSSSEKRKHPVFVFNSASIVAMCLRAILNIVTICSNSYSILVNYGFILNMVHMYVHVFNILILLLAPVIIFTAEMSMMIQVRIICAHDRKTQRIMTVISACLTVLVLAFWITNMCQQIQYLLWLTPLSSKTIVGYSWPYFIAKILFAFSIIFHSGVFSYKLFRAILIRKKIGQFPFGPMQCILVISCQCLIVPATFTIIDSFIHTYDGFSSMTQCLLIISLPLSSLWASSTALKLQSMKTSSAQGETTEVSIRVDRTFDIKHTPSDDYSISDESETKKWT
The test is described as follows: P-factor dose-response, Mam2 sensor strain in yWS677, sfGFP by flow cytometry. The test is classed as cell-based.

The target of test [5] is T3, human MTNR1A receptor (Homo sapiens, UniProt P48039). As to conditions: for Hill slope: plate reader.
T3 sequence (P48039 whole entry, one chain of several): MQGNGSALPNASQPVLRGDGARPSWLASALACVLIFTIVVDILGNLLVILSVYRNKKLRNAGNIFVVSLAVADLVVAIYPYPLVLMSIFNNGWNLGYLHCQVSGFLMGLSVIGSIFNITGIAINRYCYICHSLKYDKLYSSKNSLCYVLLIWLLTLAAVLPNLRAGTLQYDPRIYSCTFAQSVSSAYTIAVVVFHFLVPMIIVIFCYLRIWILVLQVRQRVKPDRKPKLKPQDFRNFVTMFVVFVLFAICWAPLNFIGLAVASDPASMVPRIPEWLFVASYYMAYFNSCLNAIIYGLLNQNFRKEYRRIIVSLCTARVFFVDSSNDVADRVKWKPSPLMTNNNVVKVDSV
In test [6] the target is T3, human MTNR1A receptor.
Test [7] has as its system P. brasiliensis Ste2 homolog (PbSte2). Conditions: PbSte2 in S. cerevisiae; ref Ostrov et al., 2017; cited from earlier work. The text has this:
(D) The ... || For pathogen detection, we next set out to tune a point-of-care sensor for Paracoccidioides brasiliensis, recently developed by [Ostrov et al. (2017)]. This yeast GPCR-based sensor, utilizing the Ste2 homolog from P. brasiliensis (PbSte2), detects environmental levels of pheromone peptide released by haploid P. brasiliensis cells (PbPeptide) as a means of specifically detecting this human pathogen in complex samples (Figure 6E).

The test system is the same in test [8]. The test is described as follows: PbPeptide dose-response, PbSte2 sensor single cell and two-cell amplifier-receiver consortium, GFP by plate reader. The test is classed as cell-based, Paracoccidioides brasiliensis. From the text:
For pathogen detection, we next set out to tune a point-of-care sensor for Paracoccidioides brasiliensis, recently developed by [Ostrov et al. (2017)]. This yeast GPCR-based sensor, utilizing the Ste2 homolog from P. brasiliensis (PbSte2), detects environmental levels of pheromone peptide released by haploid P. brasiliensis cells (PbPeptide) as a means of specifically detecting this human pathogen in complex samples (Figure 6E). […] To optimize these two properties, we applied our amplifier-receiver two strain approach to the PbSte2 sensor (Figures 6F–6H).

[9] abbreviates: three-strain consortium 1:1:1 vs initial response.

In the case of “WHWLQLKPGQPMY [α-factor, S. cerevisiae peptide pheromone, ligand of Ste2]”, the “activation at 100 pM ɑ-factor on Ste2 overexpression” value in test [1] (Design 4 strain with 2x and 3x Ste2 (pCCW12), Fig S4H) is “unchanged”. Besides, in test [1] (Quasi-WT strain, FUS1 promoter-sfGFP), the “sensitivity and signal output compared with BY4741” value was “substantial increase in sensitivity and signal output”. For the same molecule, the “sensitivity compared with Quasi-WT” value in test [1] (design 3 strain (Gpa1 by PGK1, Ste2 by pCCW12), Fig 4A-B) is listed as “approached the sensitivity of the Quasi-WT strain”.

As to `Nc1ncnc2c1ncn2[C@@H]1O[C@H](CO)[C@@H](O)[C@H]1O` [Adenosine], the Hill slope (as a rule, the slope factor of the fitted curve) was found to be 1.41 ± 0.10 in test [2] (Fig 5B, single pop.); 0.78 ± 0.02 in test [2] (Fig 5C, mixed pop. of three strains 1:1:1); 1.32 ± 0.08 in test [3]. In addition, the operational range in test [2] (Fig 5B, single pop., span between 5% and 95% of the activated response) was 1.56 ± 0.07 orders of magnitude; in test [2] (Fig 5C legend, consortia of three engineered strains) it was 3.3 orders of magnitude; in test [2] (Fig 5C, mixed pop. of three strains 1:1:1, span between 5% and 95% of the activated response), 3.27 ± 0.08 orders of magnitude. Moreover, the “change in Hill slope” value in test [2] (setting [9]) was “almost halved the Hill slope”. Also, in test [2] (setting [9]), the “increase in operational range” value is listed as 50 -fold.

For the molecule TYADFLRAYQSWNTFVNPDRPNL [P-factor], the midpoint of the response in test [4] (Fig 4D, Mam2 - yWS677, 4 h induction, 1 % DMSO, SC medium, 30°C, sfGFP flow cytometry, mean ± SD, triplicate isolates), the EC50, lay at 117 nM. The “potency (EC50) compared with native S. pombe response” value in test [4] (Mam2 sensor strain vs S. pombe (Croft et al., 2013)) was “identical potency (EC50)”.

With `COc1ccc2[nH]cc(CCNC(C)=O)c2c1` [Melatonin], the “operational range” value in test [5] (Fig 5F legend, single population) is recorded as 3.8 orders of magnitude; in test [5] (Fig 5F, single pop., span between 5% and 95% of the activated response), 3.79 ± 0.15 orders of magnitude; in test [5] (Fig 5G, mixed pop., two-strain system, span between 5% and 95% of the activated response), 1.48 ± 0.19 orders of magnitude. In addition, the Hill slope in test [5] (Fig 5F, single pop.) was found to be 0.69 ± 0.03; in test [5] (Fig 5G, mixed pop., tuned two-strain system 1:1), 1.65 ± 0.06; in test [6] (Fig S6D, MTNR1A sensor strain, wild-type Gpa1, flow cytometry, triplicate isolates), 0.80 ± 0.04. The “linear range of dose-response” value in test [6] (two-strain consortia, Fig 6B) was “four”.

Consider WCTRPGQGC [PbPeptide], for which, in test [7], the sensitivity entry is “nanomolar sensitivity”. Also, the detection range result in test [8] (CCW12 promoter and signal amplification, two-strain consortia) is “picomolar range”. Moreover, the “narrowing of operational range” value in test [8] (amplifier-receiver two strain consortia) was 1,000 -fold.
